Laboratory results as given in article PMC9169680 (Science (New York, N.Y.), 2022).

Experiments:
[1] = target: Tt-CI (Tetrahymena thermophila complex I, in Tt-SC I+III2) (Tetrahymena thermophila, UniProt Q23KE4); test: cryo-EM structure; type: binding; details: 2.6 Å nominal resolution; native bound cofactor of the peripheral arm
[2] = target: Tetrahymena thermophila complex III protomer (Tt-CIII) (Tetrahymena thermophila (endogenous)); test: cryo-EM structure

Chain of Tt-CI (Tetrahymena thermophila complex I, in Tt-SC I+III2) (Q23KE4 32-474): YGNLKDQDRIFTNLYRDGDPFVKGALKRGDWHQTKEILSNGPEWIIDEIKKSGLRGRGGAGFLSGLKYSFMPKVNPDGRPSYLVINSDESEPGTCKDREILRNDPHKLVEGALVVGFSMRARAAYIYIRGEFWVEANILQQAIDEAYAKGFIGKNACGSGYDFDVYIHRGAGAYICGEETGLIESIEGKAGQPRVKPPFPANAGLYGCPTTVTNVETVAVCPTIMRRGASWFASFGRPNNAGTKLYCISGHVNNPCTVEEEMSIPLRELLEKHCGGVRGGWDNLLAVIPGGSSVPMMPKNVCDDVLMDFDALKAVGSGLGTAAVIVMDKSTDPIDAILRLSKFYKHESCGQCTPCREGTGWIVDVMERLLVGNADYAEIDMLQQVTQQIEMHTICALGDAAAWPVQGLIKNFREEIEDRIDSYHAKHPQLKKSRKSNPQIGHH
Chain of Tt-CI (Tetrahymena thermophila complex I, in Tt-SC I+III2) (Q951B1 1-442 partner): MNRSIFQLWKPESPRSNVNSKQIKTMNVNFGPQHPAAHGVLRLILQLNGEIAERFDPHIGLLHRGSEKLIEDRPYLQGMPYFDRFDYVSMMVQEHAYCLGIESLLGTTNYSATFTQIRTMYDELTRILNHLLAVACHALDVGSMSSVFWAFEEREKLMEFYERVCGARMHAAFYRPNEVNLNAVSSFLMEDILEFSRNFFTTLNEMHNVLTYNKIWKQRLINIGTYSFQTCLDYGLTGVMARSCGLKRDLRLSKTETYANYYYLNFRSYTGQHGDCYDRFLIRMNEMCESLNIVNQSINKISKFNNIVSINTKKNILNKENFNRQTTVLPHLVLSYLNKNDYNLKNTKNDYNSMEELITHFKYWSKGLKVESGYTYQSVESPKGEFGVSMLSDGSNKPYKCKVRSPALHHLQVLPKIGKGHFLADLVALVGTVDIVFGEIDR
Chain of Tt-CI (Tetrahymena thermophila complex I, in Tt-SC I+III2) (Q951B4 1-162 partner): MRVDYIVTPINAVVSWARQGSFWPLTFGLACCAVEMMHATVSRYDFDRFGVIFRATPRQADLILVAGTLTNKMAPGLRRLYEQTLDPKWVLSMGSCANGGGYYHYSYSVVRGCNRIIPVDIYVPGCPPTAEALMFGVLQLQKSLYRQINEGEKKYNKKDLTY
Chain of Tt-CI (Tetrahymena thermophila complex I, in Tt-SC I+III2) (Q950Z7 1-121 partner): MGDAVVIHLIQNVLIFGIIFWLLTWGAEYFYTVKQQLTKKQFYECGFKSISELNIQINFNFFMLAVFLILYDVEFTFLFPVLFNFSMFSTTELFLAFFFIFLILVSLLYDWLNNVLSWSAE

| stoichiometry N [2] | Molecule | cryo-EM structure [1] |
| --- | --- | --- |
| – | Cc1cc2nc3c(=O)[nH]c(=O)nc-3n(C[C@H](O)[C@H](O)[C@H](O)COP(=O)(O)O)c2cc1C [flavin mononucleotide] | relative locations of the flavin mononucleotide (FMN) co-factor and eight ironsulfur clusters |
| 2 | Tetrahymena thermophila complex III protomer (Tt-CIII) | – |
